The source of these data is patent publication US20190048052A1, “ANTI-MICROBIAL PEPTIDES AND COATINGS” (Board of Regents of the University of Nebraska, priority 2016, published 2019).

The structures appear in SMILES notation. In brackets after ≈: the same amount, converted by molar mass. Read-outs that look alike come from different tables or passages of the source. Residues, ends and D or L forms follow the SMILES beside them.

The test system of data set [1] is E. coli K12. It counts as cell-based, Escherichia coli. Conditions: K12. The method in brief: (§1)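 Broth microdilution: exponential-phase bacteria at 10^6 CFU incubated with serially diluted peptides ~20 hours at 37° C, read at 630 nm to give MICs. For S. aureus USA300, effects of up to 10% human serum, pH 6.8/7.4/8.0 and 150 mM NaCl also tested.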
Data set [2] deals with Candida albicans ATCC 10231. It counts as cell-based. As to conditions: ATCC 10231, 48 h. Here is the method: (§2) Fungal strains used in this study include Candida albicans ATCC 10231, C. glabrata ATCC 2001 and C. tropicalis ATCC 13803. The fungi were grown in Remel Dex broth (Thermo Fisher Scientific, KS). Antifungal assays were conducted essentially as described for antibacterial assays above, except for a higher starting density at an OD600 0.02 and a longer incubation time of ˜48 hours prior to microplate reading (Mishra et al. (2015) RSC Advances 5:59758-59769).

Data set [3] deals with S. aureus USA300. It counts as cell-based, Staphylococcus aureus. Conditions: USA300. As for the experimental part: The minimal bactericidal concentration (MBC) was determined by plating 50 μl of the content in the clear wells of the above MIC assays. MBC was determined on the petri dishes without bacterial colony formation after overnight growth (Wang et al. (2012) Biochemistry 51:653-664).

The test system of data set [4] is C. tropicalis ATCC 13803. In kind it is cell-based, Candida tropicalis. Conditions: ATCC 13803, 48 h. Here is the method:
as §2

Data set [5] is described as follows: MTS cytotoxicity assay. As to conditions: human, HeLa CCL-2 cells. It counts as cell-based. As for the experimental part: (§3) HeLa CCL-2 epithelial adenocarcinoma cells from American Type Culture Collection (ATCC) were maintained in DMEM high glucose media with 4 mM L-glutamine (NyClone) and 100 U/mL penicillin, 100 μg/mL streptomycin (pen/strep) (Life Technologies), and 10% (v/v) inactivated fetal bovine serum (FBS) (NyClone). Cells were grown in 5% CO2 at 37° C. and were detached from the culturing dish at 80% confluency using 0.025% trypsin-EDTA (NyClone) treatment. Peptide influence on the cell viability was estimated by using the MTS assay according to the manufacturer's protocol (MTS, CellTiter96® AQ One Solution Cell Proliferation Assay, Promega) with minor modifications and as described elsewhere (Mishra et al. (2015) RSC Advances 5:59758-59769). In short, cells were cultured in flat bottomed 96 well microtiter plates (Corning Life Science) at a seeding density of 20,000 cells/well. At confluence ˜100% achieved after 20-24 hours of cultivation, the cells were washed twice with 100 μL Dulbecco's Phosphate Buffered Saline (Life Technologies). Further, 90 μL of DMEM media with 10% FBS, pen/step was added before exposure to 10 μL of the peptide solution in the concentration range 12.5-100 μM. Plates were incubated at 37° C. After 1 hour, 10 μL MTS, CellTiter96® was added. Plates were further incubated for another 2 hours at 37° C. and finally, the absorbance was measured on ChroMate® reader (Awareness Technology) at 492 nm. Culture medium and 0.2% SDS were used as negative and positive controls, respectively.

In data set [6] the test system is B. subtilis 168. In kind it is cell-based, Bacillus subtilis. The method in brief: as §1
Data set [7] concerns S. epidermidis 1457. It counts as cell-based, Staphylococcus epidermidis. The method in brief:
as §1

Data set [8] has as its system S. aureus USA300. It counts as cell-based, Staphylococcus aureus. As to conditions: for Antimicrobial activity (MIC) 150 mM NaCl / Antimicrobial activity (MIC) USA300 / MIC S. aureus USA300: USA300; for Antimicrobial activity (MIC) pH 6.8: USA300, pH 6.8; for Antimicrobial activity (MIC) Normal medium (pH 7.4): USA300, pH 7.4; for Antimicrobial activity (MIC) pH 8: USA300, pH 8. The method in brief: as §1

Data set [9] concerns S. aureus UAMS-1. In kind it is cell-based, Staphylococcus aureus. The method in brief: as §1
The subject of data set [10] is S. aureus Newman. In kind it is cell-based, Staphylococcus aureus. The method in brief: as §1
Data set [11] relates to S. aureus Mu50. In kind it is cell-based, Staphylococcus aureus. The essentials: as §1
A short description of data set [12]: Hemolytic assay. Conditions: red blood cells, hemolysis. It counts as cell-based. Here is the method:
Hemolytic analysis of selected peptides was performed using an established protocol (Mishra et al. (2015) RSC Advances 5:59758-59769). Briefly, human blood cells (UNMC Blood Bank) were washed three times with phosphate buffer saline (PBS) and diluted to a 2% solution. After peptide treatment, incubation at 37° C. for one hour, and centrifugation at 13,000 rpm, aliquots of the supernatant were transferred to a fresh 96-well microplate. To assess peptide cytotoxicity, the amount of hemoglobin released was measured at 545 nm. The percent lysis was calculated by assuming 100% release when human blood cells were treated with 1% TRITON™ X-100, and 0% release when incubated with PBS buffer. The hemolytic assays using chicken, bovine, and porcine blood cells (Lampire Biological Laboratories, Inc.) were performed in the same manner.

A short description of data set [13]: MTS cytotoxicity assay. It counts as cell-based. As to conditions: human. As for the experimental part:
as §3
Human skin HaCaT (immortalized keratinocyte from AddexBio, T0020001) and kidney HEK293 cells were also cultivated for cytotoxicity evaluation of the peptides in a similar manner.

Data set [14] relates to C. glabrata ATCC 2001. It counts as cell-based, Candida glabrata. As to conditions: ATCC 2001, 48 h. Here is the method: as §2
The mark [15] stands for this setting: chicken, read-out: LC50 Chicken RBCs.
[16] abbreviates: human, read-out: LC50 Human RBCs.
The mark [17] stands for this setting: pig, read-out: LC50 Porcine RBCs.

`CC[C@H](C)[C@H](NC(=O)[C@H](CCCNC(=N)N)NC(=O)[C@H](CCCNC(=N)N)NC(=O)[C@H](CC(C)C)NC(=O)[C@H](Cc1c[nH]c2ccccc12)NC(=O)[C@H](Cc1c[nH]c2ccccc12)NC(=O)[C@@H](N)Cc1c[nH]c2ccccc12)C(=O)N[C@@H](Cc1c[nH]c2ccccc12)C(N)=O` [TetraF2W-RR, WWWLRRIW] (H-WWWLRRIW-NH2; N-terminus assumed): the “MIC E. coli K12” value in [1] is 25 µM (≈ 32.5 µg/mL). The “MIC Candida albicans” value in [2] is 25 µM (≈ 32.5 µg/mL). Also, the “MBC S. aureus USA300” value in data set [3] came to 3.1 µM (≈ 4.03 µg/mL). The “MIC Candida tropicalis” value in data set [4] amounted to 3.1 µM (≈ 4.03 µg/mL). The molecule further came in with a CC50 at 1 hour in data set [5] of 60 µM. Also, the “MIC B. subtilis 168” value in data set [6] is 3.1 to 6.2 µM. Also, the “MIC S. epidermidis 1457” value in [7] lay within 6.2 to 12.5 µM. In [8] (S. aureus USA300), the “change in MIC on drop of pH from 8 to 6.8” value is “two-fold” and the “fold more potent than temporin-SHf (anti-MRSA)” value is given as 8 fold. In addition, in data set [8], the “Antimicrobial activity (MIC) 150 mM NaCl” value turned out to be 3.1 µM, the “Antimicrobial activity (MIC) USA300” value fell in the range of 1.56 to 3.1 µM, the “MIC S. aureus USA300” value was 1.6 to 3.1 µM and the “Antimicrobial activity (MIC) pH 6.8” value came to 6.2 μM. Besides, in data set [8], the “Antimicrobial activity (MIC) Normal medium (pH 7.4)” value is given as 1.56-3.1 μM and the “Antimicrobial activity (MIC) pH 8” value came out at 3.1 μM. For the same molecule, the “Antimicrobial activity (MIC) UAMS-1” value in data set [9] stood at 6.2 µM. Further, the “Antimicrobial activity (MIC) Newman” value in data set [10] was determined as 3.1 µM. In data set [11], the “Antimicrobial activity (MIC) Mu50” value was 3.1 µM. Besides, the HC50 at 1 hour in data set [12] (setting [15]) came out at 55 µM. Moreover, the HC50 at 1 hour in data set [12] (setting [16]) was 20 µM. Further, the HC50 at 1 hour in [12] (setting [17]) amounted to 40 µM. The molecule further had a CC50 at 1 hour in [13] (HEK293 cells) of 70 µM. In data set [13] (HaCaT cells), this molecule showed a CC50 at 1 hour of 70 µM. In addition, the “MIC Candida glabrata” value in data set [14] is >25 µM.

In the case of `CC[C@H](C)[C@H](NC(=O)[C@H](CCCCN)NC(=O)[C@H](CCCNC(=N)N)NC(=O)[C@H](CC(C)C)NC(=O)[C@H](Cc1c[nH]c2ccccc12)NC(=O)[C@H](Cc1c[nH]c2ccccc12)NC(=O)[C@@H](N)Cc1c[nH]c2ccccc12)C(=O)N[C@@H](Cc1c[nH]c2ccccc12)C(N)=O` [TetraF2W-RK, WWWLRKIW] (H-WWWLRKIW-NH2; N-terminus assumed), in [1], the “MIC E. coli K12” value is 25 µM (≈ 31.8 µg/mL). For the same molecule, the “MIC Candida albicans” value in data set [2] is 12.5 µM (≈ 15.9 µg/mL). For the same molecule, the “MBC S. aureus USA300” value in data set [3] turned out to be 12.5 µM (≈ 15.9 µg/mL). In addition, the “MIC Candida tropicalis” value in [4] lay within 3.1 to 6.2 µM. Further, the CC50 at 1 hour in data set [5] is > 100 µM. The “MIC B. subtilis 168” value in data set [6] turned out to be 6.2 µM (≈ 7.89 µg/mL). In data set [7], the “MIC S. epidermidis 1457” value came out at 6.2 µM (≈ 7.89 µg/mL). Further, in data set [8] (S. aureus USA300), the “change in MIC on drop of pH from 8 to 6.8” value is “two-fold”. Also, in [8], the “Antimicrobial activity (MIC) 150 mM NaCl” value amounted to 3.1 µM, the “Antimicrobial activity (MIC) USA300” value is 3.1 µM, the “MIC S. aureus USA300” value came to 3.1 µM (≈ 3.94 µg/mL) and the “Antimicrobial activity (MIC) pH 6.8” value is recorded as 6.2 μM. In [8], the “Antimicrobial activity (MIC) Normal medium (pH 7.4)” value came to 3.1 μM and the “Antimicrobial activity (MIC) pH 8” value came to 3.1 μM. For the same molecule, in data set [9], the “Antimicrobial activity (MIC) UAMS-1” value was determined as 6.2 µM. Moreover, the “Antimicrobial activity (MIC) Newman” value in data set [10] turned out to be 3.1 µM. In addition, the “Antimicrobial activity (MIC) Mu50” value in data set [11] was determined as 3.1 µM. Besides, in [12] (setting [15]), the HC50 at 1 hour was found to be 35 µM. Moreover, the HC50 at 1 hour in data set [12] (setting [16]) was found to be 30 µM. Besides, the HC50 at 1 hour in data set [12] (setting [17]) was 40 µM. Moreover, the CC50 at 1 hour in data set [13] (HEK293 cells) turned out to be 60 µM. The same molecule returned a cytotoxic concentration (CC50) at 1 hour in data set [13] (HaCaT cells) of 60 µM. Moreover, the “MIC Candida glabrata” value in [14] came to 12.5 µM (≈ 15.9 µg/mL).
